In series [1] the test system is P. falciparum ATCC 50005 (chloroquine resistant). The series is described as follows: Growth inhibition of chloroquine-resistant P. falciparum in culture (96-well plates, microscopy and flow cytometry). As to conditions: chloroquine-resistant strain. It is filed as cell-based. As to the method: Numerous experiments were conducted regarding dequalinium compounds and their ability to control the growth of chloroquine-resistant and sensitive strains of P. falciparum malaria parasites. Specifically, two commonly-known strains of P. falciparum were obtained from the American Type Culture Collection (ATCC), namely, ATCC 50005 (chloroquine resistant) and ATCC 50028 (chloroquine sensitive). The methods of culture and culture materials used in the experiments described herein are known in the art and discussed in Trager W. and Jensen, J., "Human Malaria Parasites in Continuous Culture" Science, […] (1976).
Assays for growth inhibition of P. falciparium were performed using the above parasites in standard 96-well test plates. All assays were performed in duplicate. The tests involved the use of a dequalinium chloride salt solution (from the Sigma Company of St. Louis, Mo.--product no. D3768) at concentration levels of 32, 16, 8, 4, 2, 1, and 0 nanograms/ml.
The parasites were permitted to incubate in the test media for 72 hours. At 24 hour intervals, new media and test substances were added, and an aliquot of the incubation mixture was removed for microscopic examination,In addition, the parasites were examined by flow cytometry using the techniques discussed in Makler, M. T., et al., "Thiazone Orange: A New Dye for Plasmodium Species Analysis" Cytometry, 8:568-570 (1987).
The entire experiment was terminated after three days. The data in FIG. 1 clearly illustrates the effectiveness of dequalinium salts against chloroquine-resistant parasites. The "Y" axis in FIG. 1 involves the percentage of erythrocytes in the test media which were infected with viable parasites. The "X" axis involves the concentration of dequalinium chloride used (in nanograms/ml.) At 0 nanograms/ml, parasite growth was extensive, with a % parasite infection of about 17 % after 72 hours.
A general note: Flow cytometry measures light scatter and fluorescence of single cells or particles in a stream.

For series [2] the following is noted: s.c., mice; cited from earlier work.
The next series has as its system Rat Colon Tumor. As to conditions: rats, subcutaneous, intraperitoneal, or implant-osmotic pump, cited from earlier work.

Molecules are shown by their SMILES. Where a name gives a salt, the structure may show the parent alone.

As for `Cc1cc(N)c2ccccc2[n+]1CCCCCCCCCC[n+]1c(C)cc(N)c2ccccc21` [dequalinium chloride, 1,1'-(1,10-Decanediyl)bis-[4-amino-2-methylquinolinium] salt], in series [1] (Plasmodium falciparum, ATCC50005, read-out: concentration level at and above which parasite growth was strongly inhibited and no viable parasites remained, after 72 hours), the minimal effective concentration was not below 0.001 µg/mL. Moreover, in series [1] (1.0 nanogram/ml and above), the parasite growth result is “strongly inhibited”. In series [1] (1.0 nanogram/ml and above, after 72 hours), the viable parasites remaining entry is recorded as “no viable parasites remained”. Besides, in series [2], the LD50 (commonly the dose at which mortality reaches 50%) is given as 70 mg/kg. The tumor growth inhibition result in the series on Rat Colon Tumor (1.0 mg/kg) is on record as “significant tumor growth inhibition”. The survival entry in the series with Rat Colon Tumor (sublethal dose 1.0 mg/kg) is listed as “all survived”.

Source of the values: patent US4946849A, “Method for the treatment of malaria” (Flow Incorporated, priority 1989, dated 1990).
